Source: patent US8889874B2, “Imidazolone-chalcone derivatives as potential anticancer agent and process for the preparation thereof” (Council of Scientific and Industrial Research, priority 2010, dated 2014)
Where two headings read alike, the source gives them in different places.

Legend:
Type in all cases: cell-based, human
SF-539 (CNS) = experiment: NCI anticancer screen, SRB assay, 48 h; details: Homo sapiens
Summary of the method: (§1)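 Sulforhodamine B protein assay read cell growth after 48 h of continuous compound exposure. Dose-response curves per cell line used at least five 10-fold-diluted concentrations, within a panel of fifty-three human lines from nine tumour types.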

U251 (CNS) = experiment: NCI anticancer screen, SRB assay, 48 h; details: Homo sapiens
Summary of the method: as §1

SNB-19 (CNS) = experiment: NCI anticancer screen, SRB assay, 48 h; details: Homo sapiens
Summary of the method: as §1

NCI/ADR-RES (ovarian) = experiment: NCI anticancer screen, SRB assay, 48 h; details: Homo sapiens, NCI/ADR-RES
Summary of the method: as §1

M14 (melanoma) = experiment: NCI anticancer screen, SRB assay, 48 h; details: Homo sapiens
Summary of the method: as §1

COLO 205 (colon) = experiment: NCI anticancer screen, SRB assay, 48 h; details: Homo sapiens, COLO 205
Summary of the method: as §1

SK-MEL-2 (melanoma) = experiment: NCI anticancer screen, SRB assay, 48 h; details: Homo sapiens
Summary of the method: as §1

[1] = system: HOP-92 (non-small cell lung); experiment: NCI anticancer screen, SRB assay, 48 h; details: Homo sapiens
Summary of the method: as §1

SK-MEL-28 (melanoma) = experiment: NCI anticancer screen, SRB assay, 48 h; details: Homo sapiens
Summary of the method: as §1

SN12C (renal) = experiment: NCI anticancer screen, SRB assay, 48 h; details: Homo sapiens, SN12C
Summary of the method: as §1

UO-31 (renal) = experiment: NCI anticancer screen, SRB assay, 48 h; details: Homo sapiens
Summary of the method: as §1

[2] = system: NCI-H460 (non-small cell lung); experiment: NCI anticancer screen, SRB assay, 48 h; details: Homo sapiens
Summary of the method: as §1

[3] = system: HOP-62 (non-small cell lung); experiment: NCI anticancer screen, SRB assay, 48 h; details: Homo sapiens
Summary of the method: as §1

HCC-2998 (colon) = experiment: NCI anticancer screen, SRB assay, 48 h; details: Homo sapiens
Summary of the method: as §1

ACHN (renal) = experiment: NCI anticancer screen, SRB assay, 48 h; details: Homo sapiens
Summary of the method: as §1

OVCAR-5 (ovarian) = experiment: NCI anticancer screen, SRB assay, 48 h; details: Homo sapiens
Summary of the method: as §1

RXF 393 (renal) = experiment: NCI anticancer screen, SRB assay, 48 h; details: Homo sapiens
Summary of the method: as §1

Renal cancer cell lines = experiment: NCI anticancer screen, SRB assay, panel summary; details: Homo sapiens
Summary of the method: as §1

Breast cancer cell lines = experiment: NCI anticancer screen, SRB assay, panel summary; details: Homo sapiens
Summary of the method: as §1

[4] = system: Ovarian cancer cell lines; experiment: NCI anticancer screen, SRB assay, panel summary; details: Homo sapiens
Summary of the method: as §1

Colon cancer cell lines = experiment: NCI anticancer screen, SRB assay, panel summary; details: for GI50: Homo sapiens
Summary of the method: as §1

[5] = system: Non-small cell lung cancer cell lines; experiment: NCI anticancer screen, SRB assay, panel summary; details: Homo sapiens
Summary of the method: as §1

[6] = system: Melanoma cancer cell lines; experiment: NCI anticancer screen, SRB assay, panel summary; details: for GI50: Homo sapiens
Summary of the method: as §1

[7] = system: Leukemia cancer cell lines; experiment: NCI anticancer screen, SRB assay, panel summary; details: Homo sapiens
Summary of the method: as §1

[8] = system: Prostate cancer cell lines; experiment: NCI anticancer screen, SRB assay, panel summary
Summary of the method: as §1

CNS cancer cell lines = experiment: NCI anticancer screen, SRB assay, panel summary; details: for GI50: Homo sapiens
Summary of the method: as §1

[9] = 48 h exposure, SRB, read-out: GI50
[10] = read-out: pGI50 (-log of molar concentration causing 50% inhibition of net cell growth) (converted)

`COc1cc(/C=C/C(=O)c2cccc(-n3cc(-c4ccccc4)[nH]c3=O)c2)ccc1O` [3a, 1-3-[(E)-3-(4-hydroxy-3-methoxyphenyl)-2-propenoyl]phenyl-4-phenyl-2,3-dihydro-1H-2-imidazolone] showed a GI50 (SF-539 (CNS); [9]) of 1.91 µM, a GI50 (SF-539 (CNS); [10]) of 1.91 µM and a GI50 (U251 (CNS); U-251, 48 h exposure, SRB, read-out: GI50) of 2.11 µM. The GI50 (U251 (CNS); U-251, read-out: pGI50 (-log of molar concentration causing 50% inhibition of net cell growth) (converted)) was 2.09 µM, the GI50 (SNB-19 (CNS); [9]) was 2.96 µM and the GI50 (SNB-19 (CNS); [10]) was 2.95 µM. It also gave a GI50 (NCI/ADR-RES (ovarian); NCl/ADR-RES, 48 h exposure, SRB, read-out: GI50) of 2.92 µM, a GI50 (NCI/ADR-RES (ovarian); [10]) of 2.95 µM and a GI50 (M14 (melanoma); [9]) of 2.61 µM. The GI50 (M14 (melanoma); [10]) was 2.63 µM, the GI50 (COLO 205 (colon); COLO205, read-out: pGI50 (-log of molar concentration causing 50% inhibition of net cell growth) (converted)) was 2.19 µM and the GI50 (COLO 205 (colon); [9]) was 2.21 µM. It also gave a GI50 (SK-MEL-2 (melanoma); [9]) of 3.65 µM, a GI50 (SK-MEL-2 (melanoma); [10]) of 3.63 µM and a GI50 [1, 9] of 2.27 µM. It also gave a GI50 [1, 10] of 2.29 µM, a GI50 (SK-MEL-28 (melanoma); [9]) of 1.85 µM and a GI50 (SK-MEL-28 (melanoma); [10]) of 1.86 µM. For the same compound, the GI50 (SN12C (renal); SN 12C, read-out: pGI50 (-log of molar concentration causing 50% inhibition of net cell growth) (converted)) was 3.31 µM, the GI50 (SN12C (renal); [9]) was 3.31 µM and the GI50 (UO-31 (renal); [9]) was 2.18 µM. It also gave a GI50 (UO-31 (renal); [10]) of 2.19 µM, a GI50 [2, 9] of 1.95 µM and a GI50 [2, 10] of 1.95 µM. For the same compound, the GI50 [3, 9] was 1.48 µM, the GI50 [3, 10] was 1.48 µM and the GI50 (HCC-2998 (colon); [9]) was 1.51 µM. It also gave a GI50 (HCC-2998 (colon); [10]) of 1.51 µM, a GI50 (ACHN (renal); [9]) of 2.5 µM and a GI50 (ACHN (renal); [10]) of 2.51 µM. For the same compound, the GI50 (OVCAR-5 (ovarian); [9]) was 2.04 µM, the GI50 (OVCAR-5 (ovarian); [10]) was 2.04 µM and the GI50 (RXF 393 (renal); RXF 393, 48 h exposure, SRB, read-out: GI50) was 2.27 µM. The GI50 (RXF 393 (renal); RXF-393, read-out: pGI50 (-log of molar concentration causing 50% inhibition of net cell growth) (converted)) was 2.29 µM, the GI50 (Renal cancer cell lines; Renal panel, log of concentration in mol/L causing 50% inhibition of net cell growth, read-out: mean graph midpoint (MG_MID) of Log10 GI50 (converted)) was 2.4 µM and the LC50 (Renal cancer cell lines; Renal panel, log of concentration leading to 50% net cell death, read-out: mean graph midpoint (MG_MID) of Log10 LC50 (converted)) was 34.7 µM. For the same compound, the GI50 (Renal cancer cell lines; eight renal cancer cell lines, exposure at least 48 hrs, read-out: GI50, range over the panel) was 1.35 to 5.29 µM, the GI50 (Breast cancer cell lines; Breast panel, log of concentration in mol/L causing 50% inhibition of net cell growth, read-out: mean graph midpoint (MG_MID) of Log10 GI50 (converted)) was 2.82 µM and the LC50 (Breast cancer cell lines; Breast panel, log of concentration leading to 50% net cell death, read-out: mean graph midpoint (MG_MID) of Log10 LC50 (converted)) was 53.7 µM. It also gave a GI50 (Breast cancer cell lines; five breast cancer cell lines, exposure at least 48 hrs, read-out: GI50, range over the panel) of 1.55 to 4.16 µM, a GI50 ([4]; Ovarian panel, log of concentration in mol/L causing 50% inhibition of net cell growth, read-out: mean graph midpoint (MG_MID) of Log10 GI50 (converted)) of 3.24 µM and an LC50 ([4]; Ovarian panel, log of concentration leading to 50% net cell death, read-out: mean graph midpoint (MG_MID) of Log10 LC50 (converted)) of 11.7 µM. For the same compound, the GI50 ([4]; six ovarian cancer cell lines, exposure at least 48 hrs, read-out: GI50, range over the panel) was 2.04 to 5.19 µM, the “mean graph midpoint (MG_MID) of Log10 LC50” value (Colon cancer cell lines; Colon panel, log of concentration leading to 50% net cell death) was 4.68 and the GI50 (Colon cancer cell lines; Colon panel, log of concentration in mol/L causing 50% inhibition of net cell growth, read-out: mean graph midpoint (MG_MID) of Log10 GI50 (converted)) was 2.14 µM. It also gave a GI50 (Colon cancer cell lines; seven colon cancer cell lines, exposure at least 48 hrs, read-out: GI50, range over the panel) of 1.4 to 3.77 µM, a GI50 ([5]; Non-small cell lung panel, log of concentration in mol/L causing 50% inhibition of net cell growth, read-out: mean graph midpoint (MG_MID) of Log10 GI50 (converted)) of 2.57 µM and an LC50 ([5]; Non-small cell lung panel, log of concentration leading to 50% net cell death, read-out: mean graph midpoint (MG_MID) of Log10 LC50 (converted)) of 41.7 µM. The GI50 ([5]; nine non-small cell lung cancer cell lines, exposure at least 48 hrs, read-out: GI50, range over the panel) was 1.48 to 3.9 µM, the GI50 ([6]; Melanoma panel, log of concentration in mol/L causing 50% inhibition of net cell growth, read-out: mean graph midpoint (MG_MID) of Log10 GI50 (converted)) was 2.57 µM and the GI50 ([6]; nine melanoma cancer cell lines, exposure at least 48 hrs, read-out: GI50, range over the panel) was 1.59 to 6.81 µM. For the same compound, the “mean graph midpoint (MG_MID) of Log10 LC50” value ([6]; Melanoma panel, log of concentration leading to 50% net cell death) was 4.06, the GI50 ([7]; Leukemia panel, log of concentration in mol/L causing 50% inhibition of net cell growth, read-out: mean graph midpoint (MG_MID) of Log10 GI50 (converted)) was 1.86 µM and the LC50 ([7]; Leukemia panel, log of concentration leading to 50% net cell death, read-out: mean graph midpoint (MG_MID) of Log10 LC50 (converted)) was 66.1 µM. For the same compound, the GI50 ([7]; two leukemia cancer cell lines (RPMI-8226 and K-562), exposure at least 48 hrs, read-out: GI50, range over the panel) was 1.67 to 2.04 µM, the GI50 ([8]; Homo sapiens, log of concentration in mol/L causing 50% inhibition of net cell growth, read-out: mean graph midpoint (MG_MID) of Log10 GI50 (converted)) was 2.51 µM and the LC50 ([8]; Homo sapiens, log of concentration leading to 50% net cell death, read-out: mean graph midpoint (MG_MID) of Log10 LC50 (converted)) was no less than 100 µM. For the same compound, the “mean graph midpoint (MG_MID) of Log10 TGI” value ([8]; log of concentration resulting in total inhibition of net cell growth) was 5.13, the “mean graph midpoint (MG_MID) of Log10 LC50” value (CNS cancer cell lines; CNS panel, log of concentration leading to 50% net cell death) was 4.62 and the GI50 (CNS cancer cell lines; CNS panel, log of concentration in mol/L causing 50% inhibition of net cell growth, read-out: mean graph midpoint (MG_MID) of Log10 GI50 (converted)) was 2.57 µM. The GI50 (CNS cancer cell lines; six CNS cancer cell lines, exposure at least 48 hrs, read-out: GI50, range over the panel) was 1.91 to 3.9 µM.
